Activity calls are given as the source filed them.
How the values were obtained:
[1] = CRF-BP/CRF-R2 complex antagonists, dose response, cell-based, uHTS hits, 384-well (AID 651639); type: functional, Homo sapiens; conditions: read-out: IC50_Mean
[2] = biological target: T1, Corticotropin-releasing factor receptor 2/Corticotropin-releasing factor-binding protein (Homo sapiens, UniProt P24387+Q13324); assay: activators of CRF receptor 2 with binding protein – uHTS hits, confirmation (AID 602473); type: functional; conditions: read-out: EC50_Mean
T1 sequence (Q13324 whole entry): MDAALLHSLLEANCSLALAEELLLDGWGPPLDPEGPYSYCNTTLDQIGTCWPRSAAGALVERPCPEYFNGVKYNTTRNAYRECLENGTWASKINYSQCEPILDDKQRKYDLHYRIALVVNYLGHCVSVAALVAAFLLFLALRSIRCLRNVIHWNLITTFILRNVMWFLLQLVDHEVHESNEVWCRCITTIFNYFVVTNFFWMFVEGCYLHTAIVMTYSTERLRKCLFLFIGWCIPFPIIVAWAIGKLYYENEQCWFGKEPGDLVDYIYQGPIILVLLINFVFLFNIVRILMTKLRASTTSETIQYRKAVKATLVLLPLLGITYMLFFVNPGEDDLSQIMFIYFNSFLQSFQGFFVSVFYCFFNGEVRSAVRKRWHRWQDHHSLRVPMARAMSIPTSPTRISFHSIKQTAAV
T1 sequence (P24387 whole entry): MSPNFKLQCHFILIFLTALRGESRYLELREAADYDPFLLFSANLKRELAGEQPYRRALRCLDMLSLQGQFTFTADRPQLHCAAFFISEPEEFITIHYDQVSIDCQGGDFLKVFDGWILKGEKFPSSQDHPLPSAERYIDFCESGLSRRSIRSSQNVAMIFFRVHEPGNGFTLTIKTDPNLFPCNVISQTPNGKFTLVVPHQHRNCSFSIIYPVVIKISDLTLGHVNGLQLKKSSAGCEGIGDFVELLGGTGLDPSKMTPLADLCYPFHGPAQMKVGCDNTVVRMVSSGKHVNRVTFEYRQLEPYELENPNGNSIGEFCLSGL

[3] = biological target: T1, Corticotropin-releasing factor receptor 2/Corticotropin-releasing factor-binding protein; assay: Dose Response confirmation of uHTS hits for small molecule antagonists of the CRF-binding protein and CRF-R2 receptor complex.; type: functional; conditions: read-out: IC50_Mean
[4] = biological target: T2, ATP-dependent translocase ABCB1 (Homo sapiens, UniProt P08183); assay: ABCB1 efflux inhibitor potency, dose response, Jurkat-DNR cells, JC-1, flow cytometry, set 2 (AID 504569); type: functional; conditions: read-out: EC50_MICROM_;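 also: potency of pump inhibitors that raise cellular JC-1 green fluorescence up to the nicardipine level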
[5] = biological target: T2, ATP-dependent translocase ABCB1; assay: ABCG2 efflux pump inhibitor potency, dose response, Ig-MXP3 cells, JC-1, flow cytometry, set 2 (AID 504566); type: functional; conditions: read-out: EC50_MICROM_;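 also: flow cytometry median green fluorescence of retained JC-1 dye; potency of efflux pump inhibition measured as rising substrate retention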
HEK293 [6] = assay: optical interference in Abeta FP readout, dose response, artefact control for IDE activator project, biochemical, fluorescence polarization (AID 588442); type: functional, cell-based; conditions: Homo sapiens
HEK293 [7] = assay: HEK cell cytotoxicity by LDH release, dose response, cytotoxicity control for IDE activator project, fluorescence, HEK cells (AID 588440); type: functional, cell-based; conditions: Homo sapiens;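 also: cytotoxicity by LDH release measuring loss of membrane integrity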
Insulin-degrading enzyme [8] = biological target: T3, Insulin-degrading enzyme (Homo sapiens, UniProt P14735); assay: activators of endogenous IDE in HEK cells, dose response, cell-based, fluorescence polarization (AID 588439); type: functional
T3 sequence (P14735 whole entry): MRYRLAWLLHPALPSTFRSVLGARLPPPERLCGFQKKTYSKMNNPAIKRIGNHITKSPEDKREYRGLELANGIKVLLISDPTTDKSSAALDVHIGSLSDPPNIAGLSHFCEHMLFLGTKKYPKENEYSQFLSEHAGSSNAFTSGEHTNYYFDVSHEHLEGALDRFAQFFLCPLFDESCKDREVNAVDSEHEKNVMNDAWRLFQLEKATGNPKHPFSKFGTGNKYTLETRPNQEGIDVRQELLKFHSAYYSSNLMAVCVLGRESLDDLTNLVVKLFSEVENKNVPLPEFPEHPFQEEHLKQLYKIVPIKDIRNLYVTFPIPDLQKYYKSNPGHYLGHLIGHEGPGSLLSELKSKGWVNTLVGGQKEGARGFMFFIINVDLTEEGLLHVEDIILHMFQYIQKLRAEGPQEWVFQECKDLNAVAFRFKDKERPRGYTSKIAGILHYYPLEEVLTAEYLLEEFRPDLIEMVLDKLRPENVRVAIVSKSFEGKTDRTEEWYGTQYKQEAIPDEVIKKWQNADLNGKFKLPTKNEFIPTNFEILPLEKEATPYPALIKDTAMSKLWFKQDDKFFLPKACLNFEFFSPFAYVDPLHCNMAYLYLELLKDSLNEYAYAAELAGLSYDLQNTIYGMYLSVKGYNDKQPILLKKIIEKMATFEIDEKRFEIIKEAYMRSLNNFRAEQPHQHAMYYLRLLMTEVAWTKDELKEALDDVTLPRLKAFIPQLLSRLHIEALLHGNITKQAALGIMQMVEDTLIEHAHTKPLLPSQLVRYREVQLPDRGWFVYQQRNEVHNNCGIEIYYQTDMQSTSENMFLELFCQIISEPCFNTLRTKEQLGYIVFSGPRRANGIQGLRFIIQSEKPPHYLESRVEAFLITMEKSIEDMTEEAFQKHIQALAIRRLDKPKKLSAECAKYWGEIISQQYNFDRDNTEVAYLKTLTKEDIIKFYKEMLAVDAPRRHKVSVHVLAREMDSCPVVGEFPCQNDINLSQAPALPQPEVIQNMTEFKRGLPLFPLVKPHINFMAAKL

Insulin-degrading enzyme [9] = biological target: T3, Insulin-degrading enzyme; assay: activators of recombinant IDE enzyme, dose response, counter-screen for IDE activator project, biochemical, fluorescence polarization (AID 588681)
[10] = biological target: RAC-gamma serine/threonine-protein kinase (Homo sapiens, UniProt Q9Y243); type: functional
[11] = biological target: Cyclin-dependent kinase 1 (Homo sapiens, UniProt P06493); type: functional;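 also: Kinome-wide panel profiling, with the target listed as panel member CDC2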
[12] = biological target: Protein kinase C zeta type (Homo sapiens, UniProt Q05513); type: functional;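 also: measured as one member of a broad kinase profiling panel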
[13] = biological target: Protein kinase C gamma type (Homo sapiens, UniProt P05129); type: functional
[14] = biological target: Casein kinase II subunit alpha (Homo sapiens, UniProt P68400); type: functional
[15] = biological target: Protein kinase C delta type (Homo sapiens, UniProt Q05655); type: functional
[16] = biological target: RAC-alpha serine/threonine-protein kinase (Homo sapiens, UniProt P31749); type: functional;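 also: AKT1 affinity measured as one member of a kinome-wide kinase profiling panel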
[17] = biological target: MAP kinase-activated protein kinase 2 (Homo sapiens, UniProt P49137); type: functional;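 also: measured as one member of a kinome-wide kinase panel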
Ephrin type-A receptor 2 = Ephrin type-A receptor 2 (Homo sapiens, UniProt P29317); type: functional;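 also: EPHA2 tested as one member of a kinome-wide kinase panel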
[18] = biological target: Serine/threonine-protein kinase PLK1 (Homo sapiens, UniProt P53350); type: functional;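 also: PLK1 measured as one member of a kinome-wide profiling panel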
[19] = biological target: Serine/threonine-protein kinase Chk2 (Homo sapiens, UniProt O96017); type: functional;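 also: CHEK2 entry within a kinome-wide screening panel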
[20] = biological target: Serine/threonine-protein kinase pim-1 (Homo sapiens, UniProt P11309); type: functional
[21] = biological target: 5'-AMP-activated protein kinase catalytic subunit alpha-1 (Homo sapiens, UniProt Q13131); type: functional
[22] = biological target: Cyclin-dependent kinase 2 (Homo sapiens, UniProt P24941); type: functional;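 also: CDK2 measured as one member of a broad kinome profiling panel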
[23] = biological target: Serine/threonine-protein kinase PLK3 (Homo sapiens, UniProt Q9H4B4); type: functional
[24] = biological target: Serine/threonine-protein kinase Chk1 (Homo sapiens, UniProt O14757); type: functional;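 also: measured as one member of a kinome-wide kinase profiling panel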
[25] = biological target: Serine/threonine-protein kinase MRCK alpha (Homo sapiens, UniProt Q5VT25); type: functional
[26] = biological target: Photoreceptor-specific nuclear receptor (Homo sapiens, UniProt Q9Y5X4); type: functional, cell-based;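 also: CHO-S cells with Gal4-NCOR and VP16-NR2E3 two-hybrid luciferase reporter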
[27] = biological target: Tyrosine-protein phosphatase non-receptor type 11 (Homo sapiens, UniProt Q06124); assay: SHP2 phosphatase inhibition, dose response, selectivity assay for STEP inhibitor project, biochemical (AID 602367); type: functional; conditions: read-out: IC50_Mean
[28] = biological target: T4, Zinc finger protein mex-5 (Caenorhabditis elegans, UniProt Q9XUB2); assay: MEX-5/TCR-2 RNA interaction inhibitors, dose response, biochemical, C. elegans, fluorescence polarization (AID 1960)
T4 sequence (Q9XUB2 whole entry): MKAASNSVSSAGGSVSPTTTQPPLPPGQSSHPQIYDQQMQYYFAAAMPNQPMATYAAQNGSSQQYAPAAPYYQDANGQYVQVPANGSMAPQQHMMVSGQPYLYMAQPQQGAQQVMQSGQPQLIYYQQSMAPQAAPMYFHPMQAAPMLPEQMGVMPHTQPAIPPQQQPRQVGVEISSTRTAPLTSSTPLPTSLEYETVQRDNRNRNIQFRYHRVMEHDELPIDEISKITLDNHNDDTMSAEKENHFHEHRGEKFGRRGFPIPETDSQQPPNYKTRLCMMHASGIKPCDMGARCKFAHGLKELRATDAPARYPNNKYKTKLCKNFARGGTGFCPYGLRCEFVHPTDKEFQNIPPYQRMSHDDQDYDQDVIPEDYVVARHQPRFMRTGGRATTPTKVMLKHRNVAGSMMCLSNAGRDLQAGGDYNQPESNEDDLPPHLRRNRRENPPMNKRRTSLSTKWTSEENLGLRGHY

Genome polyprotein = Genome polyprotein (dengue virus type 2, UniProt P29990); assay: Dengue-2 NS5 methyltransferase inhibitors, primary screen, biochemical, confirmation dose response (AID 588689); type: functional
[29] = biological target: Dual specificity protein phosphatase 3 (Homo sapiens, UniProt P51452); assay: VHR phosphatase inhibition, dose response, selectivity assay for STEP inhibitor project, biochemical (AID 602374); type: functional; conditions: read-out: IC50_Mean
[30] = biological target: T5, Long-chain-fatty-acid--AMP ligase FadD28 (Mycobacterium tuberculosis, UniProt P9WQ59); assay: Fluorescence polarization aasay to screen for inhibitors that compete for the binding of FadD28 to a bisubstrate Measured in Biochemical System Using Plate Reader - 2147-01_Inhibitor_Dose_CherryPick_Activity.; type: functional, Mycobacterium tuberculosis H37Rv
T5 sequence (P9WQ59 whole entry): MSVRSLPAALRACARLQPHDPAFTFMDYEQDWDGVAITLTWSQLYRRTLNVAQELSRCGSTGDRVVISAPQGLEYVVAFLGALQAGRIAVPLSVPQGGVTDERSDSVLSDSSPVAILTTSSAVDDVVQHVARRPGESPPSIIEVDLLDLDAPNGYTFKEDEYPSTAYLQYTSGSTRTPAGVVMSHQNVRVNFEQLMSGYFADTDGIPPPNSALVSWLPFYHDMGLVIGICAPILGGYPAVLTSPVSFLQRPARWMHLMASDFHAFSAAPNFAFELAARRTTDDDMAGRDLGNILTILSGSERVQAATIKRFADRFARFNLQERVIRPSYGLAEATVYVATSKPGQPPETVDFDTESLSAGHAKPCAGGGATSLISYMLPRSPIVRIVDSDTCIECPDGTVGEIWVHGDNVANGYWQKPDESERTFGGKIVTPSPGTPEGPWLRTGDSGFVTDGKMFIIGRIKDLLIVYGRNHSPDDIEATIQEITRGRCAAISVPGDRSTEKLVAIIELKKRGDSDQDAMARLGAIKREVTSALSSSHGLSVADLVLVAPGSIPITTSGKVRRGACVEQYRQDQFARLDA

[31] = biological target: Tyrosine-protein phosphatase non-receptor type 5 (Homo sapiens, UniProt P54829); assay: STEP phosphatase inhibitors, confirmation, biochemical, fluorescence intensity, uHTS hits (AID 602372); type: functional; conditions: read-out: IC50_Mean
[32] = biological target: T6, RNA-binding protein pos-1 (Caenorhabditis elegans, UniProt G5EF15); assay: inhibitors of POS-1/mex-3 RNA binding, dose response, biochemical, fluorescence polarization (AID 1964);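 also: purified POS-1 fused to maltose binding protein made in E. coli; potency of compounds blocking POS-1 binding to fluorescent RNA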
T6 sequence (G5EF15 whole entry): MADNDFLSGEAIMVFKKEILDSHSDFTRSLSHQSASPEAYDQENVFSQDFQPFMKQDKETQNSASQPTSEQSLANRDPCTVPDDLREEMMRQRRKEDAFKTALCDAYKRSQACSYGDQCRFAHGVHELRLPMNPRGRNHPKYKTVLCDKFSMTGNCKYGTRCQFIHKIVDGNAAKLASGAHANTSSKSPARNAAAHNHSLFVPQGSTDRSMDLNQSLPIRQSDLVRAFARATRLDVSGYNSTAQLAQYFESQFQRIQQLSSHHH

T2 sequence (P08183 whole entry): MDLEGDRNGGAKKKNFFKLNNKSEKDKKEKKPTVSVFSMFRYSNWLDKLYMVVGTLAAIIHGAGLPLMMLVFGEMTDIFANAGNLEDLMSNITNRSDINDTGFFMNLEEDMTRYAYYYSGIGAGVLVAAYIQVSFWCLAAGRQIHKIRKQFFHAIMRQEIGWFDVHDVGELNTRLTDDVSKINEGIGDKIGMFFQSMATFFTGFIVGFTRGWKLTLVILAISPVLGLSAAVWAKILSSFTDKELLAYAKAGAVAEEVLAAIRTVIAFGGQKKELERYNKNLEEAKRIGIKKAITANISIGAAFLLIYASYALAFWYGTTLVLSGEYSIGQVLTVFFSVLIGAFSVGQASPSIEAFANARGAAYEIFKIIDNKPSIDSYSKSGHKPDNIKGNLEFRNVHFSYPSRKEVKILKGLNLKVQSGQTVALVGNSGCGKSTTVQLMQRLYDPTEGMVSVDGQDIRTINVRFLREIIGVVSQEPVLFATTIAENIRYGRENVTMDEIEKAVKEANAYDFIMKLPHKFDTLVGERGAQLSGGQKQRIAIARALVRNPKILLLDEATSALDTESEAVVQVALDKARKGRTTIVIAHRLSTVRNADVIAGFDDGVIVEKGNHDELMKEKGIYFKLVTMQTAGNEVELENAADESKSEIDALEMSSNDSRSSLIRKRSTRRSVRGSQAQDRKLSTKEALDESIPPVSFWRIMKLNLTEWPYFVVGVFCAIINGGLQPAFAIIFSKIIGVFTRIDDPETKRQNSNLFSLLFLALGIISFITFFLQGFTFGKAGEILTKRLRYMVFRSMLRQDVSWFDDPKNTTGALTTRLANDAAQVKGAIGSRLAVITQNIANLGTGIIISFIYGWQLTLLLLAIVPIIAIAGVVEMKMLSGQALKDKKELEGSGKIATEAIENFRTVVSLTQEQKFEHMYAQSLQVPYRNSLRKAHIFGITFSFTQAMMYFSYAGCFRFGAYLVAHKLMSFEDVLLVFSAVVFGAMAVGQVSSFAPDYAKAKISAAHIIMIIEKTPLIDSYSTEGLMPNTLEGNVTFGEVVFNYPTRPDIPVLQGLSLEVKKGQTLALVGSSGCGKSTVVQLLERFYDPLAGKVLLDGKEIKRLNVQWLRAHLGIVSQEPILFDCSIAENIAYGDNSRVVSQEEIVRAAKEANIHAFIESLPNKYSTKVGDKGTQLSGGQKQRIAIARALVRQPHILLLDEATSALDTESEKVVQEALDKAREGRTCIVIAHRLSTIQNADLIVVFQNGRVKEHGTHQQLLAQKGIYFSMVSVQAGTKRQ
Sequence of Serine/threonine-protein kinase Chk2 (O96017 whole entry): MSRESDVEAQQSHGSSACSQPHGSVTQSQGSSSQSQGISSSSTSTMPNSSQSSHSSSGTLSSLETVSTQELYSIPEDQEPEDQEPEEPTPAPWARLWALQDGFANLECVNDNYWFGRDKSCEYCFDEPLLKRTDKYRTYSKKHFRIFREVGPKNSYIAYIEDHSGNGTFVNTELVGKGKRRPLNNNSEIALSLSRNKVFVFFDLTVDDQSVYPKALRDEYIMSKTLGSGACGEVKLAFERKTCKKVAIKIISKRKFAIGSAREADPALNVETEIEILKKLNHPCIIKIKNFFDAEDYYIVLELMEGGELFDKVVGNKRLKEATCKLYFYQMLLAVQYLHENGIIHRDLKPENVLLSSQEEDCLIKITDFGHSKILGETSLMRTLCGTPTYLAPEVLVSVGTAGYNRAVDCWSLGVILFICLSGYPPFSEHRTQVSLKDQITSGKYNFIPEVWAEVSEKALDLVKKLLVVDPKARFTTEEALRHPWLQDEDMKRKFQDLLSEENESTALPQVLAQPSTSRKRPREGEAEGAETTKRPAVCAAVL
Sequence of Protein kinase C delta type (Q05655 whole entry): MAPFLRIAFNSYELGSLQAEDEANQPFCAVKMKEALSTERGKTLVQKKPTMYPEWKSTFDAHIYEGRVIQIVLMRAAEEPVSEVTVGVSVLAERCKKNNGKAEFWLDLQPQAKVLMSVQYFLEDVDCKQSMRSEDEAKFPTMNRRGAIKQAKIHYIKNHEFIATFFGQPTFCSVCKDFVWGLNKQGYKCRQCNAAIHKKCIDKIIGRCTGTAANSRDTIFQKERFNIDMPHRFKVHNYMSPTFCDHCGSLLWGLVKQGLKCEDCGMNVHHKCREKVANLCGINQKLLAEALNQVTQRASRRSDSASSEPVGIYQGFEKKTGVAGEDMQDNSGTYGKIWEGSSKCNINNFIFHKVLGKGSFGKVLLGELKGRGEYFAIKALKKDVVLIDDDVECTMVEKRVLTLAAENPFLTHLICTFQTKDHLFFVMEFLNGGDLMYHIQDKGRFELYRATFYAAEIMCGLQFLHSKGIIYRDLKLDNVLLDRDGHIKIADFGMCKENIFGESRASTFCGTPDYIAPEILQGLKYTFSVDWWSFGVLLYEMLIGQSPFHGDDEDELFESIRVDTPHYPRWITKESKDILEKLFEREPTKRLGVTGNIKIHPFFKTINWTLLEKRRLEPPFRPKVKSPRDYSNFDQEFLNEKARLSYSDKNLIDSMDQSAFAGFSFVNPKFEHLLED
Sequence of Photoreceptor-specific nuclear receptor (Q9Y5X4 whole entry, the tested form may be a part): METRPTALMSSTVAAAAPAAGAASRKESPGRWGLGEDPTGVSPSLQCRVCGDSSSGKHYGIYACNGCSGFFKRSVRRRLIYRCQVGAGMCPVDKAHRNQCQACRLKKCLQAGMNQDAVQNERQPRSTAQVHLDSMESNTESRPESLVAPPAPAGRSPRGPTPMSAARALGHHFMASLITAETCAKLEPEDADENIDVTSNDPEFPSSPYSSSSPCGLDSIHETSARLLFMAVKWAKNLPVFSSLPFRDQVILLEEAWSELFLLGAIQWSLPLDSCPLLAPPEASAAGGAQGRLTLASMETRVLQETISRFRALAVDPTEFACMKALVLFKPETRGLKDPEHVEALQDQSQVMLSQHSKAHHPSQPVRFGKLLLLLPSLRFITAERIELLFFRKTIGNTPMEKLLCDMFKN
Sequence of Serine/threonine-protein kinase pim-1 (P11309 whole entry): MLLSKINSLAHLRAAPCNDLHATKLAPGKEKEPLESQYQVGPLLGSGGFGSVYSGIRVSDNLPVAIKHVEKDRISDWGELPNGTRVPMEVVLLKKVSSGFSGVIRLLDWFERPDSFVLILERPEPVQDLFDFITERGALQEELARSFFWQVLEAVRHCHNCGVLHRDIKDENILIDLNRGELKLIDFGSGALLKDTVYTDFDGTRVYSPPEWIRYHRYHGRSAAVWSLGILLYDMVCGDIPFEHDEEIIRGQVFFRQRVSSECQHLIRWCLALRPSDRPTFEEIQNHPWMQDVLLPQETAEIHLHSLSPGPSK
Sequence of Genome polyprotein (P29990 2492-3391 limits assumed): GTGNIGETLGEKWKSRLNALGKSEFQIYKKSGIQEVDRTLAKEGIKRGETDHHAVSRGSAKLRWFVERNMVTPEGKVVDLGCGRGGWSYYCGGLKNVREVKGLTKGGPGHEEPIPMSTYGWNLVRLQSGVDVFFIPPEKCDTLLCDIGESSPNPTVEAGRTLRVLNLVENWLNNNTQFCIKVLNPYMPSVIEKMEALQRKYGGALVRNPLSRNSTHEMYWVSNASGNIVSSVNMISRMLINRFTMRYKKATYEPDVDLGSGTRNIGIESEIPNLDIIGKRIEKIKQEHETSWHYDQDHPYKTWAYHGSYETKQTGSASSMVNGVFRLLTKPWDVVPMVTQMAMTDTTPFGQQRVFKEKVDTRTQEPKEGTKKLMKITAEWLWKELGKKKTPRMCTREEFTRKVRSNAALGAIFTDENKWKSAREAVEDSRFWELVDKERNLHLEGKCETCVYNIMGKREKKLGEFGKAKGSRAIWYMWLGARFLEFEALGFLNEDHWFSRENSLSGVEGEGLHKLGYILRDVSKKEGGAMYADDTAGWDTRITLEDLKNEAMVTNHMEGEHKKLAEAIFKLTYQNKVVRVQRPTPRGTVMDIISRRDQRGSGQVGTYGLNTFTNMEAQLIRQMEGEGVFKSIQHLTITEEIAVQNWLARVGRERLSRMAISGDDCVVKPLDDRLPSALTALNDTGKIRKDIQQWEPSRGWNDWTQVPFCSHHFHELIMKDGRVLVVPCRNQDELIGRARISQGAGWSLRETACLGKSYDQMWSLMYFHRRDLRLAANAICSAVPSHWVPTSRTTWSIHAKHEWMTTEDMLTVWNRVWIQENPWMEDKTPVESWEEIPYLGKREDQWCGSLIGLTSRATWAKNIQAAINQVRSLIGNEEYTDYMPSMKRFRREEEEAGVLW
Sequence of Dual specificity protein phosphatase 3 (P51452 whole entry): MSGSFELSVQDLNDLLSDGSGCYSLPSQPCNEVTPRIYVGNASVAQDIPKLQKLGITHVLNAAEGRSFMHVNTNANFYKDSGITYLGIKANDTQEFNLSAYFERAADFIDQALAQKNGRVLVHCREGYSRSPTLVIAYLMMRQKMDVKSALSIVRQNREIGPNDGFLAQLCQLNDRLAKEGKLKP

N#Cc1c(C(F)(F)F)cc(-c2ccc(Cl)cc2)nc1O
IC50 [1]: > 20 µM (inactive)
EC50 [2]: > 53 µM (inactive)
IC50 [3]: 4.16 µM (active)

COc1ccc(-c2cc3nc(-c4ccccc4)cc(N4CCN(C(=O)c5ccco5)CC4)n3n2)cc1
EC50 [4]: 3.35 µM (active)
EC50 [5]: 1.28 µM (active)

CN(C)CCCN(C(=O)COc1ccc(Cl)cc1)c1nc2ccc(F)cc2s1
EC50 (HEK293 [6]): > 55.9 µM (inactive)
IC50 (HEK293 [7]): > 29.7 µM (inactive)
EC50 (Insulin-degrading enzyme [8]): > 54.7 µM (inactive)
EC50 (Insulin-degrading enzyme [9]): > 54.7 µM (inactive)

Cn1ncc2c1CCCC2=O
Ki [10]: > 25.1 µM (inactive)
Ki [11]: > 20 µM (inactive)
Ki [12]: > 20 µM (inactive)
Ki [13]: > 20 µM (inactive)
Ki [14]: 15.8 µM (active)
Ki [15]: > 20 µM (inactive)
Ki [16]: > 20 µM (inactive)
Ki [17]: > 20 µM (inactive)
Ki (Ephrin type-A receptor 2): > 20 µM (inactive)
Ki [18]: 10 µM (active)
Ki [19]: > 25.1 µM (inactive)
Ki [20]: > 25.1 µM (inactive)
Ki [21]: > 25.1 µM (inactive)
Ki [22]: > 20 µM (inactive)
Ki [23]: 2 µM (active)
Ki [24]: > 20 µM (inactive)
Ki [25]: > 25.1 µM (inactive)

c1ccc(C2CC3CC4(CCCC4)N2O3)cc1 (stereo not drawn)
EC50 (HEK293 [6]): > 55.9 µM (inactive)
IC50 (HEK293 [7]): > 89.2 µM (inactive)
EC50 (Insulin-degrading enzyme [8]): > 54.7 µM (inactive)
EC50 (Insulin-degrading enzyme [9]): > 54.7 µM (inactive)

Oc1cc(C(F)(F)F)nc(SC/C=C/c2ccccc2)n1
IC50 [26]: 12.7 µM (inactive)

COc1cc(/C=C2/C(=O)NN(c3cccc(C)c3)C2=O)cc([N+](=O)[O-])c1O
IC50 [27]: 5.63 µM (active)
EC50 [28]: 89.1 µM (active)
IC50 (Genome polyprotein): 51.5 µM (active)
IC50 [29]: 4.11 µM (active)
AC50 [30]: 39.2 µM (active)
IC50 [31]: 25.5 µM (inactive)
EC50 [32]: > 300 µM (not active)
